# Values of other authors, collected in patent US11168056B2, “Process for the manufacturing of (6aR,10aR)-7-propyl-6,6a,7,8,9,10,10a,11-octahydro-[1,3]dioxolo[4′,5′:5,6]benzo[1,2-G]quinoline and (4aR,10aR)-1-propyl-1,2,3,4,4a,5,10,10a-octahydro-benzo[G]quinoline-6,7-diol” (H. Lundbeck A/S, priority 2019, dated 2021).
# Like-named read-outs stand apart in the source and are kept apart here.
# How the values were obtained:
# [1] = system: animal models relevant for Parkinson's Disease; details: various animal models
# [2] = rats
# [3] = man, after oral dosing
# PD patients = details: intravenous (IV)
# [4] = rats; remark: listed apart in the source
smiles,measurement,setting,value
"CCCN1CCC[C@@H]2Cc3c(ccc4c3OCO4)C[C@H]21 [compound (Ib), (6aR,10aR)-7-propyl-6,6a,7,8,9,10,10a,11-octahydro-[1,3]dioxolo[4′,5′:5,6]benzo[1,2-g]quinoline]",conversion of compound (Ib) to compound (I),rat hepatocytes,demonstrated
same,conversion of compound (Ib) to compound (I),human hepatocytes,demonstrated
same,efficacy in animal models relevant for Parkinson's Disease,[1],effective
CCCN1CCC[C@@H]2CC3=C(CCCC3=O)C[C@H]21 [(Ia)],efficacy in animal models relevant for Parkinson's Disease,[1],effective
same,conversion to the active compound (I),[2],converted to the active compound (I)
CCCc1cc2c(s1)CN[C@@H]1CCc3cc(OC(C)=O)c(OC(C)=O)cc3[C@@H]21 [Adrogolide],hepatic first-pass metabolism,[3],extensive
same,oral bioavailability,[3],~4%
same,antiparkinson efficacy,PD patients,comparable to that of L-DOPA
"CCCN1CCC[C@@H]2Cc3c(ccc(O)c3O)C[C@H]21 [compound (I), (4aR,10aR)-1-propyl-1,2,3,4,4a,5,10,10a-octahydro-benzo[g]quinoline-6,7-diol]",oral bioavailability,[4],low
same,efficacy in animal models relevant for Parkinson's Disease,[1],effective
